According to patent publication US12516039B2, “N-linked isoquinoline amides as LRRK2 inhibitors, pharmaceutical compositions, and uses thereof” (Merck Sharp & Dohme LLC, priority 2020, dated 2026):

Biological target: T1, GST-tagged truncated human mutant G2019S LRRK2 (Homo sapiens, UniProt Q5S007, G2019S)
T1 construct: GST-tagged truncated human mutant G2019S LRRK2; purchased Life Technologies Corporation (Carlsbad, CA)
Test: LRRK2 G2019S Km ATP LanthaScreen assay
Assay type: biochemical
Conditions: 134 μM ATP (Km ATP), LRRKtide substrate, mean of several tests
Outline: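 IC50 values are means of repeat runs, fitted with a 4-parameter logistic to the 520/495 nm TR-FRET ratio from a Tb-labeled anti-phospho-LRRKtide antibody added with EDTA. Reactions ran 90 min at room temperature at Km ATP (134 μM) with fluorescein-LRRKtide, after 15-min compound preincubation with truncated GST-tagged G2019S LRRK2.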

T1 sequence (Q5S007 970-2527 G2019S limits assumed): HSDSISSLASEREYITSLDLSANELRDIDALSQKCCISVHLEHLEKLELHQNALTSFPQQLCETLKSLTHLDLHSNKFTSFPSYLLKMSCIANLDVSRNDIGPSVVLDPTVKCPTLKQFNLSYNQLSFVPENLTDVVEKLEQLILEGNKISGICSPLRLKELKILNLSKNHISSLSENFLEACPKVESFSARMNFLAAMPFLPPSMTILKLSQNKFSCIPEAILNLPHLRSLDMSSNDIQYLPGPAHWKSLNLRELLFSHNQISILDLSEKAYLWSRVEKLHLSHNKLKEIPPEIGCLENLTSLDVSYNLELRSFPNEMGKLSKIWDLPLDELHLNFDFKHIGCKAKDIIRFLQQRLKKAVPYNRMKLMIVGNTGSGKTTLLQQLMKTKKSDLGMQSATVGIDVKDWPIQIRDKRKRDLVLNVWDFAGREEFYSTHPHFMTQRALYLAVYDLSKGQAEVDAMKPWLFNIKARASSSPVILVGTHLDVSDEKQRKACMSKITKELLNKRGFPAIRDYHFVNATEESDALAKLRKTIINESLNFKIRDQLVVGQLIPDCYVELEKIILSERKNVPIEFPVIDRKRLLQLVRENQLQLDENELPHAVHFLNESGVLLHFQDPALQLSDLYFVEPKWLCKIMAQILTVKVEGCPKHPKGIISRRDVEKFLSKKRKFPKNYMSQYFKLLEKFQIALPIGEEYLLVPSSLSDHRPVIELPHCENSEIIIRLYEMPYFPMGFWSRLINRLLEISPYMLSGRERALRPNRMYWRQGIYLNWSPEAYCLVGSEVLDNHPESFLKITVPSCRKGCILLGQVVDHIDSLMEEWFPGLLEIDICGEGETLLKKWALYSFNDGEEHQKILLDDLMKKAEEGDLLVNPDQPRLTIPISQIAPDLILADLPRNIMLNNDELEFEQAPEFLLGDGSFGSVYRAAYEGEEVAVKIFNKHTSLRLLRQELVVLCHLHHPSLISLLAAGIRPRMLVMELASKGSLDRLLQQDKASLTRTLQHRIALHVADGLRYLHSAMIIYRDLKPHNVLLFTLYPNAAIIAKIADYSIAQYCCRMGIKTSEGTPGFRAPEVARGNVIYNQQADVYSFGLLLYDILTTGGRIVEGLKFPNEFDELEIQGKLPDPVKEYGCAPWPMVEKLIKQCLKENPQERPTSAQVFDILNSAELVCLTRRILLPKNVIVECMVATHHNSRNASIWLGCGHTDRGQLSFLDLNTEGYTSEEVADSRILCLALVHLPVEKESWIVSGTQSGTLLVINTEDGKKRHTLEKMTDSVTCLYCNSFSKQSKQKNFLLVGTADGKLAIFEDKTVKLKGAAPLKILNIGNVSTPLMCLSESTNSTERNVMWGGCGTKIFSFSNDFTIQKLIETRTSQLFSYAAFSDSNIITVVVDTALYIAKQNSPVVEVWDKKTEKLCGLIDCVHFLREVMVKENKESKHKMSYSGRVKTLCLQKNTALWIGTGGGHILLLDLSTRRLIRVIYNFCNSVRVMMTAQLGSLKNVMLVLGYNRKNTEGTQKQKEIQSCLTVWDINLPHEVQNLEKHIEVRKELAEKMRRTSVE

Row | Molecule | LRRK2 pIC50
1 | (3R or 3S)-N-[6-[4-((3R,4R or 3S,4S)-4-fluoro-3-methyl-tetrahydrofuran-3-yl)piperazin-1-yl]-7-methyl-3-isoquinolyl]-5,5-dimethyl-tetrahydrofuran-3-carboxamide [Ex-10.96] | 8.99
2 | CC1(O)CC2(CN(c3cc4cc(NC(=O)C5CC5)ncc4cc3Cl)C2)C1 [Ex-4.5] | 7.72
3 | CC1(C#N)CCN(c2cc3cc(NC(=O)C4CC45CCOCC5)ncc3cc2Cl)CC1 (centres unmarked) [Ex-4.8] | 6.68
4 | CC1(N2CCN(c3cc4cc(NC(=O)C5CC56CC6)ncc4cc3Cl)CC2)COC1 (centres unmarked) [Ex-4.4] | 7.85
5 | COCCC(=O)Nc1cc2cc(N3CCN(C4(C)COCC4O)CC3)c(Cl)cc2cn1 (centres unmarked) [Ex-9.1] | 8.12
6 | (3R or 3S)-N-[6-[4-((3R,4R or 3S,4S)-4-fluoro-3-methyl-tetrahydrofuran-3-yl)piperazin-1-yl]-7-methyl-3-isoquinolyl]-5,5-dimethyl-tetrahydrofuran-3-carboxamide [Ex-10.94] | 9.40
7 | (3R or 3S)-N-[6-[4-((3R,4R or 3S,4S)-4-fluoro-3-methyl-tetrahydrofuran-3-yl)piperazin-1-yl]-7-methyl-3-isoquinolyl]-5,5-dimethyl-tetrahydrofuran-3-carboxamide [Ex-10.93] | 9.90

Same assay, conditions: 134 μM ATP (Km ATP), LRRKtide substrate, mean of several tests, read-out: LRRK2 pIC50 (converted)

Row | Molecule | IC50
8 | Cc1cc2cnc(NC(=O)C3CCOC(C)(C)C3)cc2cc1N1CCN(C2(C)CCOC2)CC1 (single isomer, unassigned) [Ex-10.42, (4R or 4S)-2,2-dimethyl-N-[7-methyl-6-[4-((R or S)-3-methyltetrahydrofuran-3-yl)piperazin-1-yl]-3-isoquinolyl]tetrahydropyran-4-carboxamide] | 0.525 nM
9 | Cn1ccc(C2CC2C(=O)Nc2cc3cc(N4CCN(C5(C)COCC5F)CC4)c(Cl)cc3cn2)n1 (single isomer, unassigned) [Ex-10.17, (1R,2R or 1S,2S)-N-[7-chloro-6-[4-((3R,4R or 3S,4S)-4-fluoro-3-methyl-tetrahydrofuran-3-yl)piperazin-1-yl]-3-isoquinolyl]-2-(1-methylpyrazol-3-yl)cyclopropanecarboxamide] | 2.75 nM
10 | CC1(N2CCN(c3cc4cc(NC(=O)C5C6COCC65)ncc4cc3Cl)CC2)COCC1O (single isomer, unassigned) [Ex-1.10, (1R or S)-N-(7-chloro-6-(4-((3R,4R or 3S,4S)-4-hydroxy-3-methyltetrahydrofuran-3-yl)piperazin-1-yl)isoquinolin-3-yl)-3-oxabicyclo[3.1.0]hexane-6-carboxamide] | 107 nM
11 | CC1(N2CCN(c3cc4cc(NC(=O)C5CC56CCCOC6)ncc4cc3Cl)CC2)COCC1O (single isomer, unassigned) [Ex-1.18, (1R,3S, or 1R,3R, or 1S,3S, or 1S,3R)-N-(7-chloro-6-(4-((3R,4R or 3S,4S)-4-hydroxy-3-methyltetrahydrofuran-3-yl)piperazin-1-yl)isoquinolin-3-yl)-5-oxaspiro[2.5]octane-1-carboxamide] | 0.724 nM
12 | CC1(C2CCOC2)CC1C(=O)Nc1cc2cc(N3CCN(C4(C)COCC4O)CC3)c(Cl)cc2cn1 (single isomer, unassigned) [Ex-10.86, (1R,2R or 1S,2S, or 1R,2S, or 1S,2R)-N-[7-chloro-6-[4-((3R,4R or 3S,4S)-4-hydroxy-3-methyl-tetrahydrofuran-3-yl)piperazin-1-yl]-3-isoquinolyl]-2-methyl-2-tetrahydrofuran-3-yl-cyclopropanecarboxamide] | 0.0813 nM
13 | CC1(N2CCN(c3cc4cc(NC(=O)C5CCC(F)(F)CO5)ncc4cc3Cl)CC2)COCC1O (single isomer, unassigned) [Ex-10.2, (2R or 2S)-N-(7-chloro-6-((3R, 4R or 3S, 4S)-4-(4-hydroxy-3-methyltetrahydrofuran-3-yl)piperazin-1-yl)isoquinolin-3-yl)-5,5-difluorotetrahydro-2H-pyran-2-carboxamide] | 0.676 nM
14 | CC1(N2CCN(c3cc4cc(NC(=O)C5CC5C(F)F)ncc4cc3Cl)CC2)COCC1F (single isomer, unassigned) [Ex-10.76, (1R,2R or 1S,2S)-N-[7-chloro-6-[4-((3R,4R or 3S,4S)-4-fluoro-3-methyl-tetrahydrofuran-3-yl)piperazin-1-yl]-3-isoquinolyl]-2-(difluoromethyl)cyclopropanecarboxamide] | 0.0813 nM
15 | CC1(N2CCN(c3cc4cc(NC(=O)C5CCC5C#N)ncc4cc3Cl)CC2)COCC1F (single isomer, unassigned) [Ex-10.67, (1R,2R or 1S,2S)-N-[7-chloro-6-[4-((3R,4R or 3S,4S)-4-fluoro-3-methyl-tetrahydrofuran-3-yl)piperazin-1-yl]-3-isoquinolyl]-2-cyano-cyclobutanecarboxamide] | 0.102 nM
16 | CCC1(N2CCN(c3cc4cc(NC(=O)C5CC56CCOCC6)ncc4cc3Cl)CC2)COCC1O (single isomer, unassigned) [Ex-2.22, (R or S)-N-(7-chloro-6-(4-((3R,4R or 3S,4S)-3-ethyl-4-hydroxytetrahydrofuran-3-yl)piperazin-1-yl)isoquinolin-3-yl)-6-oxaspiro[2.5]octane-1-carboxamide] | 0.372 nM
17 | Cc1cc2cnc(NC(=O)C3C4CCOCC43)cc2cc1N1CCN(C2(C)CCOC2)CC1 (single isomer, unassigned) [Ex-10.47, (1S,6R,7R, 1R,6S,7R, or 1R, 6S,7S, or 1S,6S,7S)-N-(7-methyl-6-(4-((R or S)-3-methyltetrahydrofuran-3-yl)piperazin-1-yl)isoquinolin-3-yl)-3-oxabicyclo[4.1.0]heptane-7-carboxamide] | 10.2 nM
18 | Cc1cc2cnc(NC(=O)C3CC3c3cnn(C)c3C(F)(F)F)cc2cc1N1CCN(C2(C)CCOC2)CC1 (single isomer, unassigned) [Ex-10.35, (1R,2R or 1S,2S)-N-[7-methyl-6-[4-((R or S)-3-methyltetrahydrofuran-3-yl)piperazin-1-yl]-3-isoquinolyl]-2-[1-methyl-5-(trifluoromethyl)pyrazol-4-yl]cyclopropanecarboxamide] | 1.7 nM
19 | CC1C(C(=O)Nc2cc3cc(N4CCN(C5(C)COCC5O)CC4)c(Cl)cc3cn2)C1c1ccccn1 (single isomer, unassigned) [Ex-11.3, (1R,2R,3R, or 1R,2S,3R, or 1S,2R,3S, or 1S,2S,3S)-N-(7-chloro-6-(4-((3R,4R or 3S,4S)-4-hydroxy-3-methyltetrahydrofuran-3-yl)piperazin-1-yl)isoquinolin-3-yl)-2-methyl-3-(pyridin-2-yl)cyclopropane-1-carboxamide] | 0.0813 nM
20 | CC1C(C(=O)Nc2cc3cc(N4CCN(C5(C)CCOC5)CC4)c(Cl)cc3cn2)C1c1cnn(C)c1 (centres unmarked) [Ex-9.6] | 1 nM
21 | COC1COCC1(C)N1CCN(c2cc3cc(NC(=O)C4CC45CCOCC5)ncc3cc2Cl)CC1 (single isomer, unassigned) [Ex-5.6] | 316 nM
22 | Cc1cc2cnc(NC(=O)C3CC3c3ccccn3)cc2cc1N1CCN(C2(C)COCC2F)CC1 (single isomer, unassigned) [Ex-6.14] | 0.148 nM
23 | CCC1C(C(=O)Nc2cc3cc(N4CCN(C5(C)COCC5F)CC4)c(Cl)cc3cn2)C1c1ccccn1 (single isomer, unassigned) [Ex-10.90, (1R,2R,3R, or 1R,2S,3R, or 1S,2R,3S, or 1S,2S,3S)-N-[7-chloro-6-[4-((3R,4R or 3S,4S)-4-fluoro-3-methyl-tetrahydrofuran-3-yl)piperazin-1-yl]-3-isoquinolyl]-2-ethyl-3-(2-pyridyl)cyclopropanecarboxamide] | 2.04 nM
